This note sets out measurements from patent US4326054A, “Cleomycins and process for producing same” (Zaidan Hojin Biseibutsu Kagaku Kenkyu Kai, priority 1979, dated 1982).

This experiment deals with Mycobacterium smegmatis ATCC 607. As to the kind of experiment: Antimicrobial activity, agar plate-cylinder method, bleomycin A2 as standard (1,000 u/mg). In kind it is cell-based. The settings on record: Table 5; copper-free form; relative to bleomycin A2 = 1,000 u/mg. As to the method:
Typical examples of the biological activities measured on cleomycins (copper-free form) are illustrated below.
Comparison was made with the relevant antibiotics bleomycins. The relative antimicrobial potency (u/mg) against Mycobacterium smegmatis ATCC 607 was measured by agar plate-cylinder method using bleomycin A2 as a standard (1,000 u/mg).
(Note: The antimicrobial potency was determined by taking bleomycin
A2 as 1,000 μ/mg and using Mycobacterium smegmatis ATCC 607 as a
test bacterium. Herinafter, the same was applied.)

For `Cc1c(N)nc(C(CC(N)=O)NCC(N)C(N)=O)nc1C(=O)NC(C(=O)NC(C)C(O)C(C)C(=O)NC(C(=O)NCCc1nc(-c2nc(C(=O)NCCCNCCCNCc3ccccc3)cs2)cs1)C1(O)CC1)C(OC1OC(CO)C(O)C(O)C1OC1OC(CO)C(O)C(OC(N)=O)C1O)c1cnc[nH]1` (centres unmarked) [compound 45, 3-(3-benzylaminopropylamino)propylaminocleomycin], the Antimicrobiral potency was 8,400 u/mg.

Molecule `Cc1c(N)nc(C(CC(N)=O)NCC(N)C(N)=O)nc1C(=O)NC(C(=O)NC(C)C(O)C(C)C(=O)NC(C(=O)NCCc1nc(-c2nc(C(=O)NCCCN3CCNCC3)cs2)cs1)C1(O)CC1)C(OC1OC(CO)C(O)C(O)C1OC1OC(CO)C(O)C(OC(N)=O)C1O)c1cnc[nH]1` (centres unmarked) [compound 13, 3-(1-piperazinyl)propylaminocleomycin] returned an Antimicrobiral potency of 980 u/mg.

For `Cc1c(N)nc(C(CC(N)=O)NCC(N)C(N)=O)nc1C(=O)NC(C(=O)NC(C)C(O)C(C)C(=O)NC(C(=O)NCCc1nc(-c2nc(C(=O)NCCNCC(C)O)cs2)cs1)C1(O)CC1)C(OC1OC(CO)C(O)C(O)C1OC1OC(CO)C(O)C(OC(N)=O)C1O)c1cnc[nH]1` (centres unmarked) [compound 12, 2-(2-hydroxypropylamino)ethylaminocleomycin], the Antimicrobiral potency was 2,280 u/mg. Consider `Cc1c(N)nc(C(CC(N)=O)NCC(N)C(N)=O)nc1C(=O)NC(C(=O)NC(C)C(O)C(C)C(=O)NC(C(=O)NCCc1nc(-c2nc(C(=O)NCCCN(C)CCCNCc3ccccc3)cs2)cs1)C1(O)CC1)C(OC1OC(CO)C(O)C(O)C1OC1OC(CO)C(O)C(OC(N)=O)C1O)c1cnc[nH]1` (centres unmarked) [compound 46, 3-[N-methyl-N-(3-benzylaminopropyl)]aminopropylcleomycin], for which the Antimicrobiral potency is given as 7,660 u/mg. Molecule `Cc1c(N)nc(C(CC(N)=O)NCC(N)C(N)=O)nc1C(=O)NC(C(=O)NC(C)C(O)C(C)C(=O)NC(C(=O)NCCc1nc(-c2nc(C(=O)NCCC[N+](C)(C)C)cs2)cs1)C1(O)CC1)C(OC1OC(CO)C(O)C(O)C1OC1OC(CO)C(O)C(OC(N)=O)C1O)c1cnc[nH]1` (centres unmarked) [compound 18, 3-(N,N,N-trimethylamino)propylaminocleomycin] returned an Antimicrobiral potency of 878 u/mg. Take `Cc1c(N)nc(C(CC(N)=O)NCC(N)C(N)=O)nc1C(=O)NC(C(=O)NC(C)C(O)C(C)C(=O)NC(C(=O)NCCc1nc(-c2nc(C(=O)NCCCCN)cs2)cs1)C1(O)CC1)C(OC1OC(CO)C(O)C(O)C1OC1OC(CO)C(O)C(OC(N)=O)C1O)c1cnc[nH]1` (centres unmarked) [compound 5, 4-aminobutylaminocleomycin]: the Antimicrobiral potency is 1,935 u/mg.

Consider `COCCCNCCCNC(=O)c1csc(-c2csc(CCNC(=O)C(NC(=O)C(C)C(O)C(C)NC(=O)C(NC(=O)c3nc(C(CC(N)=O)NCC(N)C(N)=O)nc(N)c3C)C(OC3OC(CO)C(O)C(O)C3OC3OC(CO)C(O)C(OC(N)=O)C3O)c3cnc[nH]3)C3(O)CC3)n2)n1` (centres unmarked) [compound 31, 3-(3-methoxypropylamino)propylaminocleomycin], for which the Antimicrobiral potency was 1,869 u/mg. Take `Cc1c(N)nc(C(CC(N)=O)NCC(N)C(N)=O)nc1C(=O)NC(C(=O)NC(C)C(O)C(C)C(=O)NC(C(=O)NCCc1nc(-c2nc(C(=O)NCCCN3CCOCC3)cs2)cs1)C1(O)CC1)C(OC1OC(CO)C(O)C(O)C1OC1OC(CO)C(O)C(OC(N)=O)C1O)c1cnc[nH]1` (centres unmarked) [compound 24, 3-morpholinopropylaminocleomycin]: the Antimicrobiral potency was found to be 800 u/mg. In the case of `Cc1c(N)nc(C(CC(N)=O)NCC(N)C(N)=O)nc1C(=O)NC(C(=O)NC(C)C(O)C(C)C(=O)NC(C(=O)NCCc1nc(-c2nc(C(=O)NCCCNCCCCCCN)cs2)cs1)C1(O)CC1)C(OC1OC(CO)C(O)C(O)C1OC1OC(CO)C(O)C(OC(N)=O)C1O)c1cnc[nH]1` (centres unmarked) [compound 44, 3-(6-aminohexylamino)propylaminocleomycin], the Antimicrobiral potency is 3,520 u/mg. Take `Cc1c(N)nc(C(CC(N)=O)NCC(N)C(N)=O)nc1C(=O)NC(C(=O)NC(C)C(O)C(C)C(=O)NC(C(=O)NCCc1nc(-c2nc(C(=O)NCCCNCCCN(C)C)cs2)cs1)C1(O)CC1)C(OC1OC(CO)C(O)C(O)C1OC1OC(CO)C(O)C(OC(N)=O)C1O)c1cnc[nH]1` (centres unmarked) [compound 19, 3-[3-(N,N-dimethylamino)propyl]propylaminocleomycin]: the Antimicrobiral potency is recorded as 2,004 u/mg.

For `Cc1c(N)nc(C(CC(N)=O)NCC(N)C(N)=O)nc1C(=O)NC(C(=O)NC(C)C(O)C(C)C(=O)NC(C(=O)NCCc1nc(-c2nc(C(=O)NCCCNCc3ccccc3)cs2)cs1)C1(O)CC1)C(OC1OC(CO)C(O)C(O)C1OC1OC(CO)C(O)C(OC(N)=O)C1O)c1cnc[nH]1` (centres unmarked) [compound 32, 3-benzylaminopropylaminocleomycin], the Antimicrobiral potency is recorded as 6.977 u/mg. `Cc1c(N)nc(C(CC(N)=O)NCC(N)C(N)=O)nc1C(=O)NC(C(=O)NC(C)C(O)C(C)C(=O)NC(C(=O)NCCc1nc(-c2nc(C(=O)NCCCNCCCNC3CCCCC3)cs2)cs1)C1(O)CC1)C(OC1OC(CO)C(O)C(O)C1OC1OC(CO)C(O)C(OC(N)=O)C1O)c1cnc[nH]1` (centres unmarked) [compound 37, 3-(3-cyclohexylaminopropylamino)propylaminocleomycin]: the Antimicrobiral potency is on record as 14,784 u/mg. On to `Cc1c(N)nc(C(CC(N)=O)NCC(N)C(N)=O)nc1C(=O)NC(C(=O)NC(C)C(O)C(C)C(=O)NC(C(=O)NCCc1nc(-c2nc(C(=O)NCCCNCCCNC(C)c3ccccc3)cs2)cs1)C1(O)CC1)C(OC1OC(CO)C(O)C(O)C1OC1OC(CO)C(O)C(OC(N)=O)C1O)c1cnc[nH]1` (centres unmarked) [compound 14, 3-[3-(1-phenylethylamino)propylamino]propylaminocleomycin], for which the Antimicrobiral potency is listed as 11,420 u/mg. Take `Cc1c(N)nc(C(CC(N)=O)NCC(N)C(N)=O)nc1C(=O)NC(C(=O)NC(C)C(O)C(C)C(=O)NC(C(=O)NCCc1nc(-c2nc(C(=O)NCCCNCCc3ccccn3)cs2)cs1)C1(O)CC1)C(OC1OC(CO)C(O)C(O)C1OC1OC(CO)C(O)C(OC(N)=O)C1O)c1cnc[nH]1` (centres unmarked) [compound 41, 3-[2-(2-pyridyl)ethylamino]propylaminocleomycin]: the Antimicrobiral potency is 6,068 u/mg. For `Cc1c(N)nc(C(CC(N)=O)NCC(N)C(N)=O)nc1C(=O)NC(C(=O)NC(C)C(O)C(C)C(=O)NC(C(=O)NCCc1nc(-c2nc(C(=O)NCCc3cnc[nH]3)cs2)cs1)C1(O)CC1)C(OC1OC(CO)C(O)C(O)C1OC1OC(CO)C(O)C(OC(N)=O)C1O)c1cnc[nH]1` (centres unmarked) [compound 40, 2-(4-imidazolyl)ethylaminocleomycin], the Antimicrobiral potency was 1,147 u/mg.

`Cc1c(N)nc(C(CC(N)=O)NCC(N)C(N)=O)nc1C(=O)NC(C(=O)NC(C)C(O)C(C)C(=O)NC(C(=O)NCCc1nc(-c2nc(C(=O)NCCCNCCCCCCO)cs2)cs1)C1(O)CC1)C(OC1OC(CO)C(O)C(O)C1OC1OC(CO)C(O)C(OC(N)=O)C1O)c1cnc[nH]1` (centres unmarked) [compound 42, 3-(6-hydroxyhexylamino)propylaminocleomycin]: the Antimicrobiral potency was 4,806 u/mg. Turning to `Cc1c(N)nc(C(CC(N)=O)NCC(N)C(N)=O)nc1C(=O)NC(C(=O)NC(C)C(O)C(C)C(=O)NC(C(=O)NCCc1nc(-c2nc(C(=O)NCCCNC(C)CCN)cs2)cs1)C1(O)CC1)C(OC1OC(CO)C(O)C(O)C1OC1OC(CO)C(O)C(OC(N)=O)C1O)c1cnc[nH]1` (centres unmarked) [compound 21, 3-(3-amino-1-methylpropylamino)propylaminocleomycin], the Antimicrobiral potency was 2,620 u/mg. For `Cc1c(N)nc(C(CC(N)=O)NCC(N)C(N)=O)nc1C(=O)NC(C(=O)NC(C)C(O)C(C)C(=O)NC(C(=O)NCCc1nc(-c2nc(C(=O)NCCN)cs2)cs1)C1(O)CC1)C(OC1OC(CO)C(O)C(O)C1OC1OC(CO)C(O)C(OC(N)=O)C1O)c1cnc[nH]1` (centres unmarked) [Compound No. 3, 2-aminoethylaminocleomycin], the Antimicrobiral potency is 2,760 u/mg. Take `Cc1c(N)nc(C(CC(N)=O)NCC(N)C(N)=O)nc1C(=O)NC(C(=O)NC(C)C(O)C(C)C(=O)NC(C(=O)NCCc1nc(-c2nc(C(=O)NCCCNCCCN)cs2)cs1)C1(O)CC1)C(OC1OC(CO)C(O)C(O)C1OC1OC(CO)C(O)C(OC(N)=O)C1O)c1cnc[nH]1` (centres unmarked) [compound 43, 3-(3-aminopropylamino)propylaminocleomycin]: the Antimicrobiral potency is 2,790 u/mg.

As for `Cc1c(N)nc(C(CC(N)=O)NCC(N)C(N)=O)nc1C(=O)NC(C(=O)NC(C)C(O)C(C)C(=O)NC(C(=O)NCCc1nc(-c2nc(C(=O)NCCCN)cs2)cs1)C1(O)CC1)C(OC1OC(CO)C(O)C(O)C1OC1OC(CO)C(O)C(OC(N)=O)C1O)c1cnc[nH]1` (centres unmarked) [compound 4, 3-aminopropylaminocleomycin], the Antimicrobiral potency is listed as 2,150 u/mg. Regarding `Cc1c(N)nc(C(CC(N)=O)NCC(N)C(N)=O)nc1C(=O)NC(C(=O)NC(C)C(O)C(C)C(=O)NC(C(=O)NCCc1nc(-c2nc(C(=O)NCCCNCCCCN)cs2)cs1)C1(O)CC1)C(OC1OC(CO)C(O)C(O)C1OC1OC(CO)C(O)C(OC(N)=O)C1O)c1cnc[nH]1` (centres unmarked) [compound 6, 3-(4-aminobutylamino)propylaminocleomycin], the Antimicrobiral potency was 3,575 u/mg. Turning to `Cc1c(N)nc(C(CC(N)=O)NCC(N)C(N)=O)nc1C(=O)NC(C(=O)NC(C)C(O)C(C)C(=O)NC(C(=O)NCCc1nc(-c2nc(C(=O)NCCCNCCCN3CCCC3)cs2)cs1)C1(O)CC1)C(OC1OC(CO)C(O)C(O)C1OC1OC(CO)C(O)C(OC(N)=O)C1O)c1cnc[nH]1` (centres unmarked) [compound 26, 3-[3-(1-pyrrolidinyl)propylamino]propylaminocleomycin], the Antimicrobiral potency was 3,590 u/mg. The value for `Cc1c(N)nc(C(CC(N)=O)NCC(N)C(N)=O)nc1C(=O)NC(C(=O)NC(C)C(O)C(C)C(=O)NC(C(=O)NCCc1nc(-c2nc(C(=O)NCCCNCCCN3CCOCC3)cs2)cs1)C1(O)CC1)C(OC1OC(CO)C(O)C(O)C1OC1OC(CO)C(O)C(OC(N)=O)C1O)c1cnc[nH]1` (centres unmarked) [compound 28, 3-(3-morpholinopropylamino)propylaminocleomycin] was 1,715 u/mg.
